Test results: patent US20060134217A1, “Leukotriene and integrin inhibitor combination and treatment method” (priority 2004, published 2006)
Marks after values point to notes of the source that are not given here. Values belong to the compound of their own block, whether it stands above or below them.

Columns and labels:
[1] = system: key inflammatory cells; assay: Migration of inflammatory cells from blood into lungs; settings: in vivo
[2] = system: persistent asthmatics on low to medium inhaled corticosteroids; assay: Phase II add-on of R411 to inhaled corticosteroids (MARS study); type: in vivo, human; settings: added to moderate dose inhaled corticosteroids, subpopulation with less well controlled asthma
Source text: As set out above, a second component in the solid pharmaceutical dosage form comprises a therapeutically effective amount of R411 (N-(2-chloro-6-methylbenzoyl)-4-[(2,6-dichlorobenzoyl)amino]-L-phenylalanine-2-(diethylamino)ethyl ester), or a pharmaceutically acceptable salt thereof. […] The MARS study illustrated in FIG. 3 was designed to evaluate the safety and efficacy of R411 over a 12 week treatment period in 350 persistent asthmatics being treated with a stable dose of low to medium inhaled corticosteroids and inhaled short acting […]. Patients were randomized to one of five cohorts: 50, 200, 600 mg once daily (QD) or 300 mg twice daily (BID) R411, or placebo (n=70/group). After a 2-week placebo run-in period and subsequent 2-week add-on period (R411 or placebo), morning inhaled corticosteroids were removed. Two weeks later, evening inhaled corticosteroids were removed, and patients remained in the treatment period for an additional 8 weeks. The primary endpoint in the study was the percentage change in FEV1 from baseline, and secondary endpoint included PEFR, asthma exacerbations, β2-agonist use, asthma control questionnaire, asthma symptom scores, nocturnal awakenings, FEF25-75 and rate of asthma treatment failures.

[3] = Source text: The pharmaceutical dosage forms may also be formulated to provide a chronobiological synergy of the two compounds.
[4] = system: atopic primate; assay: Airway inflammation in the atopic primate, oral R411; type: in vivo; settings: oral administration, FIG. 6
[5] = target: T1, α4 (Homo sapiens, UniProt P13612); assay: In vitro binding to α4 integrin
T1 sequence (P13612 34-1032): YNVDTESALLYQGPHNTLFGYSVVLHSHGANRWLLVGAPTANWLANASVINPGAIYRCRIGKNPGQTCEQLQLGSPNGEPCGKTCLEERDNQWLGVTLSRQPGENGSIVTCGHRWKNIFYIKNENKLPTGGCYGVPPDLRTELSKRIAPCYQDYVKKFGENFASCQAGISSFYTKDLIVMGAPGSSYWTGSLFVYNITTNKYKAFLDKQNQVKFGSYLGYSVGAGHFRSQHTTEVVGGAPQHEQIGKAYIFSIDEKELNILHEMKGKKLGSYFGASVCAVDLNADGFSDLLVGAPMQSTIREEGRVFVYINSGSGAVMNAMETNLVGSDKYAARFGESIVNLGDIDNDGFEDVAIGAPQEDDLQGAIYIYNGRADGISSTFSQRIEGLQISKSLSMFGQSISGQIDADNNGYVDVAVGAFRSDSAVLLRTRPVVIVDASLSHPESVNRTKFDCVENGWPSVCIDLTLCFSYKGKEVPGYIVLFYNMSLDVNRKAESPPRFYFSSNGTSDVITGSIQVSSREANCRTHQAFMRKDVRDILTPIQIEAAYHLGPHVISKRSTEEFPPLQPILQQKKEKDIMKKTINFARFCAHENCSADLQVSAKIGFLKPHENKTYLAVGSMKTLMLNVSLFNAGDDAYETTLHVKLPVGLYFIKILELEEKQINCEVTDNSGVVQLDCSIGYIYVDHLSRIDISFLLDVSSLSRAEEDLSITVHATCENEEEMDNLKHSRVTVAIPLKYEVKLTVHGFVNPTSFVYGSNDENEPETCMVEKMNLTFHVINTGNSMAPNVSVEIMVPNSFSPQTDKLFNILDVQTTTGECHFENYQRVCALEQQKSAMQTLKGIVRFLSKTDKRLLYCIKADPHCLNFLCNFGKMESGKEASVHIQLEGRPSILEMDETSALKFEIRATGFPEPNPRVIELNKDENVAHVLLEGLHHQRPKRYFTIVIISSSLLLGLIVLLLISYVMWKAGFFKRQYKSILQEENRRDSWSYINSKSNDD

[6] = target: T2, α4/β7 to MadCAM-1 (Homo sapiens, UniProt P13612+P26010); assay: Inhibition of α4/β7 binding to MadCAM-1
T2 sequence (P13612 34-1032): T1 sequence (P13612 34-1032)
T2 sequence (P26010 20-798): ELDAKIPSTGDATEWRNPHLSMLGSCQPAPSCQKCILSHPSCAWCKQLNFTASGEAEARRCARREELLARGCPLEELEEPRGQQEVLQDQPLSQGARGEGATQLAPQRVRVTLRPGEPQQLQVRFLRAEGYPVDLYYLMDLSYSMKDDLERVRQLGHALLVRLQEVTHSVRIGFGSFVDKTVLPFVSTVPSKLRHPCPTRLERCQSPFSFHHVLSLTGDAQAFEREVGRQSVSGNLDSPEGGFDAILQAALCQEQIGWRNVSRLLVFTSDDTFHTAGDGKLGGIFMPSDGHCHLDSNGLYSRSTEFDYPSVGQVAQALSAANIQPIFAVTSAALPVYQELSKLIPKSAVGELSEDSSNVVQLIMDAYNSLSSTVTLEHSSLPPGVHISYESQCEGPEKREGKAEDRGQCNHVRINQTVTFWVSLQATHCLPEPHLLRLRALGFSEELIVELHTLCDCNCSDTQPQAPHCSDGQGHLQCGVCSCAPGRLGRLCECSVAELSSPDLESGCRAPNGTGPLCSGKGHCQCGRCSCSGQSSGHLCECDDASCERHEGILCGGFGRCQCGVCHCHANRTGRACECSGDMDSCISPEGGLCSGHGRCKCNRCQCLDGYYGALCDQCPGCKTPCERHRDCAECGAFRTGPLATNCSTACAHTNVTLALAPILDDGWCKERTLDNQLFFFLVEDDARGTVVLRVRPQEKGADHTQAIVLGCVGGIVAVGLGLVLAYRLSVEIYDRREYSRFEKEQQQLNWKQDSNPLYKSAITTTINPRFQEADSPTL
Source text: (§1) R411 inhibits the binding of α4/β1 to vascular cell adhesion molecule (VCAM-1) and α4/β7 to MadCAM-1 by […]. R411 is disclosed in U.S. Pat. No. 6,229,011, which disclosure is incorporated by reference herein.

[7] = system: α4/β1 and α4/β7 integrins; assay: Integrin selectivity
[8] = target: α4/β1 to vascular cell adhesion molecule (VCAM-1) (Homo sapiens, UniProt P05556+P13612); assay: Inhibition of α4/β1 binding to VCAM-1
Source text: as §1

[9] = system: mild/moderate asthmatics not treated with inhaled corticosteroids; assay: ARES study: R411 monotherapy, 12 week treatment period; type: in vivo, human; settings: for % Asthma exacerbation / Asthma control Questionnaire (Total Score), change from baseline / Morning asthma symptoms, change from baseline / Nocturnal awakenings (scores), change from baseline / Rescue β 2-agonist use (puffs/d), change from baseline: 12 weeks, ITT population
Procedure: The ARES study illustrated in FIG. 4 was designed to evaluate the safety and efficacy of monotherapy R411 over a 12 week treatment period in 480 mild/moderate asthmatics not treated with inhaled corticosteroids. Patients were randomized to one of four cohorts: 50, 200, 600 mg QD R411, or placebo (n=120/group). The primary endpoint in the study was change in FEV1 from baseline, and secondary endpoints included PEFR, asthma exacerbations, β2-agonist use, asthma control questionnaire, asthma symptom scores, and nocturnal awakenings.
ARES study evaluated the safety and efficacy of monotherapy with R411 over a 12-week treatment period in 479 mild/moderate asthmatics not treated with inhaled corticosteroids. Patients were randomized to one of four cohorts: 50, 200, 600 mg once daily R411, or placebo.

[10] = system: mild and moderate asthmatics; settings: cited from earlier work
[11] = system: stable asthmatic adults maintained on inhaled corticosteroids; settings: cited from earlier work
[12] = 50, 200, 600 mg once daily vs placebo

Sequence of α4/β1 to vascular cell adhesion molecule (VCAM-1) (P05556 21-798, one chain of several): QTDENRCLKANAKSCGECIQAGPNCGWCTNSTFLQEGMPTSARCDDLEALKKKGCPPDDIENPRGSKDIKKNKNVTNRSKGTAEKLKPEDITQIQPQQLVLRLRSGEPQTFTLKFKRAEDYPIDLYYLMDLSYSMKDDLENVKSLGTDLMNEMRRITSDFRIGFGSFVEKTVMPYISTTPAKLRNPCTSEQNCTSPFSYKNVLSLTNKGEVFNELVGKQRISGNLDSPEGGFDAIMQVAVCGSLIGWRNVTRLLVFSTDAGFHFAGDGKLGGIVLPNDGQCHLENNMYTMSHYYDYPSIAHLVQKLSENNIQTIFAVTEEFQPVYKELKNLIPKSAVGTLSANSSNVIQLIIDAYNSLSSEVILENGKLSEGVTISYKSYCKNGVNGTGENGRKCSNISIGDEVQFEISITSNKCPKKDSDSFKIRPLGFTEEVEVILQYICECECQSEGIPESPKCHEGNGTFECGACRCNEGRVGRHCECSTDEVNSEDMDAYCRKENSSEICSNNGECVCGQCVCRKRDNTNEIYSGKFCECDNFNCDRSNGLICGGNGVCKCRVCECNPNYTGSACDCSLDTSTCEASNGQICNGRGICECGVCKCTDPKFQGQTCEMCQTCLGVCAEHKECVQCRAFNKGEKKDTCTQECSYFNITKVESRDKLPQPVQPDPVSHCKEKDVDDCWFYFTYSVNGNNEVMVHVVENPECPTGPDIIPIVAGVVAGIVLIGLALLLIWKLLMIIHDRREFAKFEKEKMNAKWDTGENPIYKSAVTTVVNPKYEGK

- acid/base character [3]: weak base
- binding affinity ([5]; activated α4): high affinity
- dissociation ([5]; activated α4): slow dissociation
- dissociation ([5]; receptor not activated): more rapid
- in vitro binding affinity ([5]; receptor not activated): lower
- inhibition of binding of α4/β7 to MadCAM-1 [6]: inhibits
- inhibition of binding of α4/β1 to VCAM-1 [8]: inhibits
Compound: CCN(CC)CCOC(=O)[C@H](Cc1ccc(NC(=O)c2c(Cl)cccc2Cl)cc1)NC(=O)c1c(C)cccc1Cl [R411, N-(2-Chloro-6-methylbenzoyl)-4-[(2,6-dichlorobenzoyl)amino]-L-phenylalanine-2-(diethylamino)ethyl ester]
- migration of key inflammatory cells from the blood into the lungs [1]: block the migration
- large airway flow rates as measured by FEV1 ([2]; FIG. 2): additive effect
- small airway flow rates measured by FEF25-75 ([2]; FIG. 3): additive effect
- solubility along the gastrointestinal tract [3]: higher solubility in the upper part of the gastrointestinal tract
- airway inflammation [4]: attenuates airway inflammation
- integrin selectivity [7]: effective against both α4/β1 and α4/β7 integrins
- % Asthma exacerbation ([9]; 200 mg once daily): 25.6%
- Asthma control Questionnaire (Total Score), change from baseline ([9]; 200 mg once daily): −0.29 [2.08]
- Morning asthma symptoms, change from baseline ([9]; 200 mg once daily): −0.34* [1.55]
- Nocturnal awakenings (scores), change from baseline ([9]; 200 mg once daily): −0.15*/[0.61] scores
- Rescue β 2-agonist use (puffs/d), change from baseline ([9]; 200 mg once daily): −0.36/[3.04] puffs/d
- % Asthma exacerbation ([9]; 600 mg once daily): 26.10%
- Asthma control Questionnaire (Total Score), change from baseline ([9]; 600 mg once daily): −0.23 [2.00]
- Morning asthma symptoms, change from baseline ([9]; 600 mg once daily): −0.33* [1.57]
- Nocturnal awakenings (scores), change from baseline ([9]; 600 mg once daily): −0.12*/[0.58] scores
- Rescue β 2-agonist use (puffs/d), change from baseline ([9]; 600 mg once daily): −0.41*/[3.11] puffs/d
- decrease in daytime asthma and nocturnal symptom score [9, 12]: Statistically significant improvements
- reducing rescue albuterol use [9, 12]: Statistically significant improvements
- Asthma Control Questionnaire Scores and Asthma Quality-of-Life ([9]; compared to placebo): Improvement
- small airway flow rates as measured by FEF25-75 ([9]; monotherapy, FIG. 4): significant effect
- reduction in asthma exacerbations ([9]; two highest doses of 200 and 600 mg): 26%

Compound: CC(C)(O)c1ccccc1CC[C@@H](SCC1(CC(=O)[O-])CC1)c1cccc(/C=C/c2ccc3ccc(Cl)cc3n2)c1.[Na+] [montelukast, [R-(E)]-1-[[[1-[3-[2-(7-chloro-2-quinolinyl)ethenyl]phenyl]-3-[2-(1-hydroxy-1-methylethyl)phenyl]propyl]thio]methyl]cyclopropaneacetic acid, monosodium salt]
- reduction of "as-needed" (beta)-agonist use from baseline ([10]; adult patients, placebo 4.6%): 26.1%
- reduction of nocturnal awakenings from baseline ([10]; patients with nocturnal awakenings of at least 2 nights per week, combined analysis, placebo 15%): 34%
- reduction in mean inhaled corticosteroid dose ([11]; 12-week active treatment period, placebo 30%): 47%
- patients successfully tapered off inhaled corticosteroids ([11]; at conclusion of study, placebo 29%, p=NS): Approximately 40%
